How the values were obtained:
[1] = Light stability in ethyl acetate (HPLC % area); format: physicochemical; settings: for After 19 hrs % / Initial %: clear glass vial; for After 19 hrs %: 19 hours ordinary room lighting, HPLC % area; for Initial %: before light exposure, HPLC % area of total peak area
Method: (§1) The light stability of MK-7 was compared to compounds of the invention as hereinbefore described. Compounds were dissolved separately in ethyl acetate or MCT oil, transferred to glass vial (clear glass) and placed on the bench in a well lit laboratory (ordinary room lighting). The samples were analyzed after 19 hours of light exposure or more.
(§2) The samples were analyzed by HPLC using aHPLC_KB_001, with the HPLC conditions detailed below. • HPLC-DAD high pressure system: Agilent, LC system 1100 series • Analytical column: Supelcosil C-18, 4.6×250 mm, 5 μm • Column temperature: 40° C. • Flow rate: 1 mL/min • Injection volume: 8 μL • UV-detection: 270 nm/340 nm • Run time: 20 min • Eluent system: 50% Solvent C: MeOH/Water with 0.1% v/v acetic acid (95/5 v/v) 50% Solvent D: Isopropanol
(§3) The content of MK-7 and the MK-7 derivative in the samples have been quantified as % area of the total peak area in the chromatogram. […] Note that examples 2a and 2b show the synergistic behaviour discussed after table 2.

[2] = In vivo testing in rats: MK-7 in plasma after oral gavage; set-up: species or system male Sprague Dawley Rats
Method: Male Rats aged 6 to 8 weeks and weighing around 180 to 225 g. Animals were fasted overnight with free access to water. Animals were administered test substance by oral gavage with a dose of 100 μg/kg body weight (in recommended formulation and dose volume). Blood samples (150-200 μl) were collected at various time points during the next 48 hours post dose. To determine the bioavailability of different formulations containing MK-7 in male e Sprague Dawley Rats through gavage. Formulations were both dissolved in sunflower oil. Approximately 0.4 ml/animal (depending on the weight of the animal) via oral gavage (100 μg/kg body weight). There were 6 animals per formulation. Blood samples were collected from the tail vein of each animal and transferred into lithium heparin tubes at 2 and 12 hours post dose. Quantification of analyte in plasma was determined by LC-MS-MS analysis: Analyte: MK-7 in plasma. The data are mean of four measurements (low and high values are not included).

[3] = Calcium salt composition: recovery from tablet after direct compression; format: physicochemical; settings: for compatibility with calcium in the formulation process: formulated together with calcium salts; for recovered from the tablet after formulation: magnesium stearate, MCC, compared to amount pre-formulation
Method: We combined 47 mg of a 0.19 wt % formulation of the MK-7 derivative of Example 16 (diacetate) in microcrystalline cellulose MCC with 645 mg of 90 wt % calcium carbonate, […] of magnesium stearate and 745 mg of MCC and formulated tablets of this blend using direct compression.
After formulation we recovered the MK-7 derivative from the tablet. We recovered 88 wt % of the derivative from the tablet.
The same experiment was repeated using identical conditions other than the use of MK-7 rather than the MK-7 derivative. We recovered 77.6 wt % of MK7 from the tablet compared to the amount pre-formulation. We show therefore that the loss of MK7 during tableting process is 23%.

[4] = Light stability in MCT oil (HPLC % area); format: physicochemical; settings: 24 hours light exposure
Method: as §1, §2, §3

[5] = tablet with calcium carbonate, direct compression

SMILES | After 19 hrs % ([1]; in ethyl acetate) | Initial % ([1]; in ethyl acetate) | serum level 12 hours after administration compared with MK-7 [2] | compatibility with calcium in the formulation process [3] | recovered from the tablet after formulation [3, 5] | light degradation in ethyl acetate compared with MCT oil ([1]; in ethyl acetate) | degradation after 19 hours of light exposure ([1]; in solution (ethyl acetate, Table 1), 19 hours light exposure) | degradation after 24 hours of light exposure [4] | reduction in the amount present after tabletting ([3]; directly compressed with excipients such as calcium or magnesium) | compatibility with calcium in the formulation process ([3]; listed as MK7) | loss during tableting process [3, 5]
CC(C)=CCC/C(C)=C/CC/C(C)=C/CC/C(C)=C/CC/C(C)=C/CC/C(C)=C/CC/C(C)=C/Cc1c(C)c(OC(=O)c2ccccc2)c2ccccc2c1OC(=O)c1ccccc1 [Example 1, 2-((2E,6E,10E,14E,18E,22E)-3,7,11,15,19,23,27-heptamethyl-octacosa-2,6,10,14,18,22,26-heptaen-1-yl)-3-methylnaphthalene-1,4-diyl dibenzoate] | 95.4% | 98.5% |  |  |  |  |  |  |  |  | 
CCC(=O)Oc1c(C)c(C/C=C(\C)CC/C=C(\C)CC/C=C(\C)CC/C=C(\C)CC/C=C(\C)CC/C=C(\C)CCC=C(C)C)c(OC(=O)CC)c2ccccc12 [Example 7, 2-((2E,6E,10E,14E,18E,22E)-3,7,11,15,19,23,27-heptamethyloctacosa-2,6,10,14,18,22,26-heptaen-1-yl)-3-methylnaphthalene-1,4-diyl dipropionate] |  |  | the same |  |  |  |  |  |  |  | 
CC(=O)Oc1c(C)c(C/C=C(\C)CC/C=C(\C)CC/C=C(\C)CC/C=C(\C)CC/C=C(\C)CC/C=C(\C)CCC=C(C)C)c(OC(C)=O)c2ccccc12 [Example 16] | 92.7% | 93.1% |  | more compatible with calcium than MK7 | 88 wt % |  |  |  |  |  | 
CC(C)=CCC/C(C)=C/CC/C(C)=C/CC/C(C)=C/CC/C(C)=C/CC/C(C)=C/CC/C(C)=C/CC1=C(C)C(=O)c2ccccc2C1=O [MK-7, 2-((2E,6E,10E,14E,18E,22E)-3,7,11,15,19,23,27-Heptamethyloctacosa-2,6,10,14,18,22,26-heptaen-1-yl)-3-methylnaphthalene-1,4-dione] | 53.7% | 99.4% |  | degrades rapidly | 77.6 wt % | degrades even more rapidly | approximately 50% | approximately 70% | up to 30% | degrades in the formulation process together with calcium | 23%

Reference: patent US20160184254A1, “COMPOSITIONS COMPRISING VITAMIN K DERIVATIVES AND SALTS” (KAPPA BIOSCIENCE AS, priority 2013, published 2016)
